Test results taken from US6703413B2 (Rhode Island Hospital, priority 1999, dated 2004).
Read-outs that look alike come from different tables or passages of the source.

How the values were obtained:
[1] = tested on: SKOV3 human ovarian tumor cell line; assay: Mouse model of recurrent ovarian cancer, intraperitoneal lavage; format: in vivo, Holland Sprague-Dawley mice; settings: i.p. lavage from 5 days after 5×10^6 tumor cells, 3 times a day for 4 days, 30 mg/day
Procedure: Holland Sprague-Dawley mice were injected with 5×10^6 tumor cells (e.g., SKOV3 human ovarian tumor cell line) to mimic a condition of advanced ovarian cancer. […] At least a 75-80% reduction in tumor foci was observed.

[2] = tested on: NIH-3T3 cells; assay: Phosphotidylserine externalization, Annexin-V FITC binding; format: cell-based, murine; settings: NIH-3T3, 24 h exposure, non-significant
Procedure: Three×10^5 cells were seeded in plastic tissue culture flasks. […] Control cultures received an appropriate volume of Kollidine-17P. After an additional 24 h, cells were harvested and phosphotidylserine externalization determined by assessing Annexin-V FITC binding using cytofluorometric techniques. Each bar represents the mean±SE of four determinations. ** p≦0.01, *** p0.001
Cell membrane phosphotidylserine externalization, as a reflection of the potential induction of apoptosis, was assessed by flow cytometry methods using the ApoAlert® Annexin-V/FITC assay kit. Briefly, 1×10^6 cells were incubated for 24 h in tissue culture medium containing serum. […] Control cultures received 5% Kollidon 17 PF alone. Twenty-four hours later, all cells were harvested by trypsinization. The harvested cells were resuspended in 200 μl of binding buffer and then incubated for 5-15 min in a solution containing 1 μg/ml Annexin-V FITC at room temperature in the dark. The cells were then analyzed to quantitate Annexin-V binding by cytofluorometric techniques that utilized FACScan using the ModFit LT program with statistical analysis as described above.

[3] = tested on: activated human T-cell cultures; assay: Cytotoxic and apoptotic activity in normal primary cells; format: cell-based
Excerpt: (§1) This observation was confirmed using normal (non-tumor) primary cells derived from animals, which are known to be free of tumors.

[4] = tested on: normal murine bone marrow cultures; assay: as above; format: cell-based
Excerpt: as §1

[5] = tested on: TNF; interleukins 1, 6, and 10; VEGF; TGF; assay: Factors controlling angiogenesis in treated patients; format: in vivo, human; settings: metastatic colon cancer patients, compared to placebo
Procedure: Patients with metastatic colon cancer were treated with taurolidine and several factors controlling angiogenesis were measured.

[6] = tested on: ovarian tumor cells; assay: DNA fragmentation, agarose-gel electrophoresis; format: cell-based, human; settings: 50 μM
[7] = tested on: H-596 lung tumor cells; assay: Cell growth inhibition, 3 d exposure, cell counting; format: cell-based, human
Procedure: (§2) One ml of this cell suspension was added to each well of a 12 well cell culture plate that contained 3 ml of appropriate media plus serum. […] Control wells received 40 μl of 5% Kollidon 17 PF alone. Seventy-two hours later, all cells were harvested by trypsinization and cell number determined electronically using a Coulter Model Z1 particle counter (Coulter Corp., Miami, Fla.) to assess cell growth inhibition. Each experiment was performed in duplicate and repeated a minimum of three times.
(§3) Cells were seeded at a density of 1-5×10^4 cells in each well of a 6 well tissue culture flask. […] After three days, cells were harvested by trypsinization and cell number determined electronically. Cell growth inhibition was determined by comparison to non-Taurolidine exposed control cultures. The IC50 was calculated as the concentration required to inhibit cell number by 50%.

[8] = tested on: DU-145 prostate tumor cells; assay: as above; format: cell-based, human
Procedure: as §2, §3

[9] = tested on: HCT-8 colon tumor cells; assay: as above; format: cell-based, human
Procedure: as §2, §3

[10] = tested on: HCT-15 colon tumor cells; assay: as above; format: cell-based, human
Procedure: as §2, §3

SMILES: O=S1(=O)CCN(CN2CCS(=O)(=O)NC2)CN1 [Taurolidine, Bis-(1,1-dioxoperhydro-1,2,4-thiadiazinyl-4)methane]
- reduction in tumor foci [1]: 75-80%
- increase in Annexin-V binding [2]: ~5%
- cytotoxicity [3]: not cytotoxic in the high μM range
- concentrations required to inhibit cell proliferation ([4]; normal murine bone marrow): mM range
- cytotoxicity ([4]; normal murine bone marrow cultures): not cytotoxic in the high μM range
- factors controlling the growth of blood vessels [5]: decreased
- DNA fragmentation [6]: overt DNA fragmentation
- IC50 [7]: 34.2 µM
- IC50 ([7]; Homo sapiens, NCI-H596, 72 h): ~35 µM
- IC50 [8]: 9.8 ± 0.8 µM
- IC50 ([8]; Homo sapiens, DU-145, 72 h): ~10 µM
- IC50 [9]: 11.5 ± 0.5 µM
- IC50 ([9]; Homo sapiens, HCT-8, 72 h): ~10 µM
- IC50 [10]: 9.6 ± 3 µM
- IC50 ([10]; Homo sapiens, HCT-15, 72 h): ~10 µM
